# Data reported in PubChem BioAssay (NCI).
#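 Growth conditions: 96-well plates. Treatment: test compound, 48 hours, 5 concentrations. Analysis: linear interpolation between bracketing concentrations; unreached endpoints set to highest concentration. GI50 = concentration required for 50% inhibition of growth. TGI: concentration producing complete growth inhibition.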
# Legend:
# Experiment in all cases: growth of human tumour cells (NCI), 48 h
# M14 melanoma = tested on: M14 melanoma
# TK-10 renal = tested on: TK-10 renal
# SR leukemia = tested on: SR leukemia
# HOP-62 NSCLC = tested on: HOP-62 NSCLC
# DU-145 prostate = tested on: DU-145 prostate
# OVCAR-8 ovarian = tested on: OVCAR-8 ovarian
# SN12C renal = tested on: SN12C renal
# OVCAR-5 ovarian = tested on: OVCAR-5 ovarian
# SNB-19 CNS = tested on: SNB-19 CNS
# HOP-92 NSCLC = tested on: HOP-92 NSCLC
# UACC-257 melanoma = tested on: UACC-257 melanoma
# CAKI-1 renal = tested on: CAKI-1 renal
# HCT-116 colon = tested on: HCT-116 colon
# U251 CNS = tested on: U251 CNS
# OVCAR-4 ovarian = tested on: OVCAR-4 ovarian
# RPMI-8226 leukemia = tested on: RPMI-8226 leukemia
# A498 renal = tested on: A498 renal
# MCF7 breast = tested on: MCF7 breast
# T-47D breast = tested on: T-47D breast
# SF-539 CNS = tested on: SF-539 CNS
# 786-0 renal = tested on: 786-0 renal
# NCI-H226 lung = tested on: NCI-H226 lung
# MDA-MB-435 = tested on: MDA-MB-435
# SK-MEL-28 melanoma = tested on: SK-MEL-28 melanoma
# MDA-MB-231 breast = tested on: MDA-MB-231 breast
# SK-MEL-5 melanoma = tested on: SK-MEL-5 melanoma
# HCC-2998 colon = tested on: HCC-2998 colon
# SK-OV-3 ovarian = tested on: SK-OV-3 ovarian
smiles,measurement,setting,value
COc1ccc2c(c1)C=CC1(O2)Oc2ccc(OC)cc2C=C1C (stereo not given),GI50,M14 melanoma,402 nM
same,GI50,TK-10 renal,7810 nM
same,TGI,TK-10 renal,> 100000 nM
same,GI50,SR leukemia,335 nM
same,TGI,SR leukemia,22700 nM
same,GI50,HOP-62 NSCLC,615 nM
same,TGI,HOP-62 NSCLC,> 59200 nM
same,GI50,DU-145 prostate,1130 nM
same,TGI,DU-145 prostate,> 100000 nM
same,GI50,OVCAR-8 ovarian,944 nM
same,TGI,OVCAR-8 ovarian,4560 nM
same,GI50,SN12C renal,800 nM
same,TGI,SN12C renal,> 55900 nM
same,GI50,OVCAR-5 ovarian,1760 nM
same,TGI,OVCAR-5 ovarian,> 100000 nM
same,GI50,SNB-19 CNS,598 nM
same,TGI,SNB-19 CNS,> 100000 nM
same,GI50,HOP-92 NSCLC,189 nM
same,TGI,HOP-92 NSCLC,930 nM
same,GI50,UACC-257 melanoma,820 nM
same,TGI,UACC-257 melanoma,> 48900 nM
same,GI50,CAKI-1 renal,632 nM
same,TGI,CAKI-1 renal,> 100000 nM
same,GI50,HCT-116 colon,509 nM
same,TGI,HCT-116 colon,> 24200 nM
same,GI50,U251 CNS,456 nM
same,TGI,U251 CNS,7860 nM
same,GI50,OVCAR-4 ovarian,28800 nM
same,TGI,OVCAR-4 ovarian,> 100000 nM
same,GI50,RPMI-8226 leukemia,475 nM
same,TGI,RPMI-8226 leukemia,> 25400 nM
same,GI50,A498 renal,251 nM
same,TGI,A498 renal,1060 nM
same,GI50,MCF7 breast,652 nM
same,TGI,MCF7 breast,> 100000 nM
same,GI50,T-47D breast,2030 nM
same,TGI,T-47D breast,> 65200 nM
same,GI50,SF-539 CNS,396 nM
same,TGI,SF-539 CNS,3020 nM
same,GI50,786-0 renal,742 nM
same,TGI,786-0 renal,> 36200 nM
same,GI50,NCI-H226 lung,4410 nM
same,TGI,NCI-H226 lung,> 65600 nM
same,GI50,MDA-MB-435,222 nM
same,TGI,MDA-MB-435,545 nM
same,GI50,SK-MEL-28 melanoma,4800 nM
same,TGI,SK-MEL-28 melanoma,> 81900 nM
same,GI50,MDA-MB-231 breast,1160 nM
same,TGI,MDA-MB-231 breast,> 100000 nM
same,GI50,SK-MEL-5 melanoma,695 nM
same,TGI,SK-MEL-5 melanoma,13500 nM
same,GI50,HCC-2998 colon,1350 nM
same,TGI,HCC-2998 colon,7360 nM
same,GI50,SK-OV-3 ovarian,538 nM
same,TGI,SK-OV-3 ovarian,> 100000 nM
